Test results from patent publication US6927234B2, “Xanthone derivatives, method of production thereof, and pharmaceutical composition containing the same” (Kuboyama Bio Ken Inc., priority 2003, dated 2005).
Read-outs that look alike come from different tables or passages of the source. Marks after values point to notes of the source that are not given here.

Tests used:
[1] = system: adjuvant-induced arthritis; assay type: in vivo, Sprague-Dawley rats; settings: gavage once per day for 7 days; for Rat paw wt.: five rats per group
Description: Adjuvant-induced arthritis responds to both steroids and non-steroids. The degree of inflammation is assessed by measuring differences in foot weight and/or the foot volume.
Rats weighing between 150-200 g were purchased from ATL, in Kent Wash. They were male Sprague-Dawley rats. The animals were kept individually in stainless steel cages with free access to water and feed (Harlan Teklan Rodent Diet). The light cycle was maintained at 12 hours light and 12 hours dark. The temperature was maintained at 22° C.±3° C. with a relative humidity of 40 to 70%.
[…] The test compound and hydrocortisone were given by gavage.
The test materials were delivered orally (by gavage) once per day for 7 days.
Male Sprague-Dawley rats (150-200 g) were sensitized by injecting Fruend's complete adjuvant (0.5% suspension of killed mycobacterium tuberculosis (H37RA, Difco, in mineral oil)). A 0.1 ml aliquot was administered intradermally at a plantar site on the right hind leg of each rat.
The test materials were given orally (by gavage) to each of 5 rats per treatment group once per day for 7 days. Administration of the test materials was initiated on the day of sensitization.
The left hind paw was measured just before sensitization an again on Day 7. The plantar edema inhibitory rate and the body weight gain were determined by comparison with the non-sensitized rat groups.
The paw weights for each rat group were averaged. Anti-inflammatory activity was determined by comparing paw weights calculated as follows: [formula]

Sarcoma 180 [2] = assay: Sarcoma 180 assay, oral dosing, 12-day treatment period (Example 5); assay type: in vivo, Swiss-Webster mice; settings: 12 days treatment; for % Tumor Inhibition / Body wt. G (avg.): oral gavage
Description: (§1) The compound obtained in Example 1 was dissolved in ethyl alcohol at 10 mg/ml. Dilutions of this stock solution were made to 100, 10 and 1 mcg per kilo body weight of the mice. The Sarcoma 180 assay was carried out as described below.
The tumor stock was a Sarcoma 180, which was started in the laboratory from an American Type Culture Collection. This stock culture has been passed at weekly intervals as an ascites in non-treated Swiss-Webster mice.
(§2) The current studies were all carried out with Swiss-Webster mice obtained from Animal Technologics Ltd., Kent, Wash. To prepare the inoculum, the ascites fluid from a mouse with a 7-12 day ascites is aspirated using a sterile technique. The tumor cells are checked for viability using the trypan-blue staining technique. Once a cell count is established, the tumor cells are diluted with normal saline or phosphate buffered saline to obtain a final concentration of 1 to 2×10^6 cells per mm^3. This is the tumor suspension that is then injected into the mice. The final dilution is plated on trypticase soy agar to determine if it is free of contamination.
(§3) One tenth (0.1 ml) of the above suspension is inoculated into the left hind leg muscle (hamstring muscle mass) of each mouse. The inoculated mice are placed into one large cage and then randomly segregated into groups of five mice. The mice are housed in shoe box cages on wood shavings with free access to water and laboratory chow. The mice are weighed on the day of inoculation, on day 7, day 12, and at time of sacrifice.
Treatment of the mice was initiated the day after transplant. The treatment period was 12 days.
(§4) At the end of the observation period, the mice are sacrificed by ether anesthesia. The skin over the left hind leg is removed to expose the tumor and the leg and tumor are removed at the hip joint. Any residual skin is removed and the legs with tumors are weighed individually. Ten normal legs (right legs) are prepared in a similar manner and weighed. The mean value of the normal leg is subtracted from the weight of the leg with the tumor to give an estimate of the actual tumor weight. [formula]

Sarcoma 180 [3] = assay: Sarcoma 180 assay, oral gavage for five days, sacrifice on Day 10 (Example 4); assay type: in vivo, Swiss-Webster mice; settings: for % Tumor Inhibition: sacrificed Day 10, female mice
Description: as §1
The tumor stock was a Sarcoma 180 which was started in the laboratory from an American Type Culture Collection. This stock culture has been passed at weekly intervals as an ascites in non-treated Swiss-Webster mice.
as §2, with “7-10” for “7-12”, “sterile” for “sterile technique. The tumor cells are checked for viability using the trypan-blue staining”
as §3, with “10,” for “12,”
Treatment of the mice was initiated the day after transplant and then continued for five days.
as §4, with “period, 10 days,” for “period,”, “sacrificed either” for “sacrificed”, “by cervical dislocation or” for “by”, “weight.” for “weight. [formula]”

Sarcoma 180 [4] = assay: Sarcoma 180 assay, single intraperitoneal dose (Example 7); assay type: in vivo, Swiss-Webster mice
Source text: [table] [table] The tumor stock was a Sarcoma 180 which was started in the laboratory from an American Type Culture Collection. This stock culture has been passed at weekly intervals as an ascites in non-treated Swiss-Webster mice. The current studies were all carried out with Swiss-Webster mice obtained from Animal Technologics Ltd., Kent, Wash. To prepare the inoculum, the ascites fluid from a mouse with a 7-10 day ascites is aspirated using a sterile technique. […] This was the tumor suspension that was then injected into the mice. The final dilution was plated on trypticase soy agar to determine if it was free of contamination. One tenth (0.1 ml) of the above suspension was inoculated into the left hind leg muscle (hamstring muscle mass) of each mouse. The inoculated mice were placed into one large cage and then randomly segregated into groups of five mice. The mice were housed in shoe box cages on wood shavings with free access to water and laboratory chow. The mice were weighed on the day of inoculation, on day 7, day 10, and at time of sacrifice. Treatment of the mice was initiated the day after transplant. At the end of the observation period, the mice were sacrificed by ether anesthesia. The skin over the left hind leg was removed to expose the tumor and the leg and tumor were removed at the hip joint. Any residual skin was removed and the legs with tumors were weighed individually. Ten normal legs (right legs) were prepared in a similar manner and weighed. The mean value of the normal leg was subtracted from the weight of the leg with the tumor to give an estimate of the actual tumor weight: […]

[5] = 1 mg/kg, single dose intraperitoneally
[6] = 10 mg/kg, single dose intraperitoneally
[7] = 100 mg/kg, single dose intraperitoneally

O=C(O)Cc1c2cc[nH]c2cc2c(=O)c3ccccc3oc12 [Compound of Example 1]
% Inhibition (rat paw inflammation) ([1]; 1 mcg/kg body wt.): 95.2%
Rat paw wt. ([1]; 1 mcg/kg body wt.): 0.324 g
toxicity from final body weights (Sarcoma 180 [2]; 1 and 10 mcg/kg, oral): not toxic
visible tumor (Sarcoma 180 [2]; 1 and 10 mcg/kg, oral): no visible tumor
% Tumor Inhibition (Sarcoma 180 [2]; 1 mcg/kg): 98.5* %
Body wt. G (avg.) (Sarcoma 180 [2]; 1 mcg/kg): 29.2 G
% Tumor Inhibition (Sarcoma 180 [2]; 10 mcg/kg): 100* %
Body wt. G (avg.) (Sarcoma 180 [2]; 10 mcg/kg): 28.7 G
% Tumor Inhibition (Sarcoma 180 [3]; 1 mcg/kg): 43%
% Tumor Inhibition (Sarcoma 180 [3]; 10 mcg/kg): 100%
% Tumor Inhibition (Sarcoma 180 [3]; 100 mcg/kg): 100%
toxicity as indicated by the body weights (Sarcoma 180 [3]; any dose (1, 10, 100 mcg/kg)): No toxicity

O=c1c2ccccc2oc2ccccc12 [Compound of Example 3, Xanthone]
% Inhibition (Sarcoma 180 [4]; [5]): 80%
Net Tumor wt. (Sarcoma 180 [4]; [5]): 0.3 g
% Inhibition (Sarcoma 180 [4]; [6]): 100%
Net Tumor wt. (Sarcoma 180 [4]; [6]): 0 g
% Inhibition (Sarcoma 180 [4]; [7]): 100%
Net Tumor wt. (Sarcoma 180 [4]; [7]): 0 g
evidence of tumor (Sarcoma 180 [4]; 10 and 100 mg/kg body weight, single dose intraperitoneally): no evidence of tumor
Body weight (Sarcoma 180 [4]; Day 1, 1 mg/kg single ip): 24.2 g
Body weight (Sarcoma 180 [4]; Day 1, 10 mg/kg single ip): 23.8 g
Body weight (Sarcoma 180 [4]; Day 1, 100 mg/kg single ip): 23.4 g
Body weight (Sarcoma 180 [4]; Day 7, 1 mg/kg single ip): 26 g
Body weight (Sarcoma 180 [4]; Day 7, 10 mg/kg single ip): 26.1 g
Body weight (Sarcoma 180 [4]; Day 7, 100 mg/kg single ip): 26.2 g
Body weight (Sarcoma 180 [4]; Day 10, 1 mg/kg single ip): 26.2 g
Body weight (Sarcoma 180 [4]; Day 10, 10 mg/kg single ip): 26.4 g
Body weight (Sarcoma 180 [4]; Day 10, 100 mg/kg single ip): 26.5 g

C[C@]12CCC(=O)C=C1CC[C@@H]1[C@@H]2[C@@H](O)C[C@@]2(C)[C@H]1CC[C@]2(O)C(=O)CO [hydrocortisone]
% Inhibition (rat paw inflammation) ([1]; 10 mg/kg body wt.): 42%
Rat paw wt. ([1]; 10 mg/kg body wt.): 0.98 g
